These results are taken from a melting point compilation (Tetko et al.; mined from patent text by program, amines drawn as free bases though some values may be those of a salt).

A value given as a limit tells only on which side of the number the result lay.

Broadly, the melting point is the temperature of the solid-liquid transition.

Turning to `CC(=O)OC1CCC(NC(=O)Nc2ccccc2CCc2cc(C(C)(C)C)c(O)c(C(C)(C)C)c2)CC1` (stereo not drawn), the melting point was in the range of 92 to 94 °C.
`COc1ccc(-c2ccc(N3CCCN(c4ccc(-c5ccc(OC)c(OC)c5)cn4)CC3)nc2)cc1OC` gave a melting point of 190 to 192 °C.
The same measure for `O=Cc1ccc2ccnc(NC(=O)c3ccccc3)c2c1`: 138 to 139 °C; for `Cc1nc2cc3c(cc2c(=O)[nH]1)C(N(C)c1ccc(C(=O)NC(CCc2nnn[nH]2)C(=O)O)c(F)c1)CC3` (mixture of isomers): 203 to 205 °C; for `C=C(C)Cc1c(O)cc(C(C)(C)C)c(OC(C)=O)c1C(C)(C)C`: 102 °C.
The same measure for `COc1cc2ncnc(Nc3cc(Cl)c(O)c(Cl)c3)c2cc1OC`: 293 to 295 °C; for `CCc1nnc(CCCOc2c(C)cc(N)c(C=NO)c2C)s1`: 158 to 160 °C.
On to `CCOc1ccc2[nH]c(S(=O)Cc3cccn4ccnc34)nc2c1` (stereo not drawn), for which the melting point was in the range of 186 to 188 °C.
As for `O=C(Nc1ccc(C(F)(F)F)cc1)NC1CCN(C(=O)Cc2c[nH]cn2)CC1`, the melting point was 121 to 124 °C.
As for `Cc1cc(C)cc(Oc2c(CCCc3ccccc3)c(C)[nH]c(=O)c2I)c1`, the melting point stood at 220 °C.
With `CN(Cc1cc2c(=O)c(C(=O)NCc3ccc(Cl)cc3)cn(C)c2o1)CC(O)c1ccco1` (stereo not drawn) the figure was 94 to 101 °C; with `CCOC(=O)C1(S(=O)(=O)c2ccc(OCc3ccccc3)cc2)CCN(Cc2ccccc2)CC1`, 89 °C; with `Cc1cc(Nc2nccc(-c3sc(-c4cccnc4)nc3C)n2)ccc1N1CCCCC1`, 200 to 201 °C.
With `C=CC(C)(C)c1c(C=O)c2ccc(Cl)cc2n1COCc1ccccc1` the figure was 227 °C.
Consider `COc1ccc(-c2nc(Cn3ccnc3)cs2)cc1`, for which the melting point was in the range of 89 to 90 °C.
With `O=C1CN(c2nccnc2[N+](=O)[O-])CCN1` the figure was 178 to 179 °C.
For the compound `O=C1c2cc(Br)ccc2CCc2ccc(S(=O)(=O)F)cc21`, the melting point lay within 148 to 151 °C.
`FC(F)(F)c1cccc(N2CCN(Cc3n[nH]c4ccccc34)CC2)c1` gave a melting point of 78 to 80 °C.
The same measure for `CC(C)(C)c1ccc(CCCCC(O)CC2CCCC2)cc1NC(=O)CC1c2ccccc2Oc2ccccc21` (stereo not drawn): 132 to 133 °C; for `CCOC(=O)c1cnn(-c2ccc(Cl)cc2C(F)(F)F)c1Cl`: 67 to 69 °C; for `CCC(CC)Nc1cc(C)nc(Oc2c(C)cc(C)cc2C)c1CN`: 117 to 119 °C.
With `COc1ccc(C(=O)Nc2nc3ccc([N+](=O)[O-])cc3c(NCc3cccs3)c2C#N)cc1` the figure was 217 to 220 °C.
The same measure for `CCOc1ncc(S(=O)(=O)N2CCN(CC)CC2)cc1-c1nc2c(CC)n(CCOC)nc2c(=O)[nH]1`: 158 to 160 °C.
`CCOC(=O)C1=C(C)NC(C)=C(C(=O)OCC)C1c1ccccc1/C=C/C(=O)OCC(C)C`: the melting point lay in the range of 172 to 174 °C.
With `CON=C(c1ccccc1COc1cc(C)ccc1C)C1OCCO1` the figure was 136 to 137 °C; with `Cc1ccc(C(C)C)c(-n2cc(-c3ccccc3)c(C)c2Cl)c1`, 103 °C; with `O=C1OCCC12Sc1ccc([N+](=O)[O-])cc1C2=O` (stereo not drawn), 190 to 194 °C.
`Cc1cc(CN2CCNC2=C[N+](=O)[O-])on1` gave a melting point of 168 to 170 °C.
Compound `CC1(CNC(=O)CCl)OCCc2c1[nH]c1ccccc21` (stereo not drawn) registered a melting point of 186 to 187 °C.
Regarding `O=C(Oc1ccccc1)c1ccc(Oc2ccc([N+](=O)[O-])cc2)cc1O`, the melting point was 118 to 120 °C.
As for `O=C1c2c(Cl)cccc2-n2cnc(/C=C\Cl)c2[C@@H]2CCN12`, the melting point fell in the range of 189 to 191 °C.
`CC(C)(C)c1cc2c(c(C(C)(C)C)c1)OC(=O)C2c1ccc(F)cc1` (stereo not drawn) yielded a melting point of 146 to 147 °C.
The same measure for `Cc1ccc2c(c1)C(c1cn(C)c(=O)[nH]c1=S)c1nc(C)oc1C=C2` (stereo not drawn): 238 to 240 °C; for `CC(C)(C)OC(=O)C=Cc1ccc2ccccc2c1`: 74 to 75 °C.
Regarding `Oc1ccc2nc(-c3ccc(O)c(F)c3)cc(-c3ccc(Cl)cc3)c2c1`, the melting point was in the range of 140 to 147 °C.
The same measure for `CCOc1cc(CN2C(=O)c3ccccc3C2=O)c2c(c1)Oc1c(ccc(OCC)c1CO[Si](C)(C)C(C)(C)C)N2CC`: 158 to 159 °C.
In the case of `CCOC(=O)c1c(C)nn(C)c1S(N)(=O)=O`, the melting point fell in the range of 112 to 113 °C.
With `O=C1OCCN1c1ccc2cc[nH]c2c1` the figure was 199 °C.
`CC(C)(C)C(c1csc2ccccc12)[C@@H](OC(N)=O)c1nc(-c2ccccc2)c[nH]1` (stereo partly drawn) registered a melting point of 116 to 120 °C.
As to `CS(=O)(=O)c1ccc(-c2cnn(-c3ccc(F)cc3)c(=O)c2S(=O)(=O)c2ccccc2)cc1`, the melting point was in the range of 203 to 204 °C.
Turning to `COc1cc(C(C)=O)ccc1OCCCN1CCC(c2n[nH]c3ccccc23)CC1`, the melting point lay within 171 to 173 °C.
The same measure for `O=c1c(-c2ccccc2)c(Cn2cnc3c(Cl)ncnc32)oc2ccc(Br)cc12`: 234 to 236 °C.
In turn, `O=C(NC1CC1)c1cc(Nc2nc(N3CCC[C@H]3CO)nc3ccoc23)n[nH]1` had a melting point of 96.8 °C.
The same measure for `O=C(c1ccccc1)c1ccc(OCCCCNS(=O)(=O)c2ccc(Br)cc2)cc1`: 71 to 73 °C.
As to `[N-]=[N+]=NCCCCCCC(N)=O`, the melting point was 62 °C.
With `O=[N+]([O-])c1cc(C(F)(F)F)cc2nc(C(F)(F)F)[nH]c12` the figure was 95 to 97 °C.
Compound `O=C1NC(=O)C(CCCCc2ccc(O)cc2)O1` (stereo not drawn) displayed a melting point of 151 to 152 °C.
The same measure for `CC(O)COc1ccc2c(c1)OC(C)(C)CC2=O` (stereo not drawn): 111 to 113 °C.
The same measure for `Cn1nc(-c2ccc([N+](=O)[O-])o2)c2c(Cl)ncnc21`: 195 °C.
The same measure for `CC(C)(C)[Si](C)(C)N1C(=O)C[C@H]1CI`: 71 to 72 °C; for `CC(C)Cn1c(=O)c2nc(-c3ccc(/C=C/C(=O)O)cc3)[nH]c2n(CC(C)C)c1=O`: greater than 300 °C.
Compound `CC(=O)OC1C(OC2=NN(Cc3ccccc3)C(=O)C3CC23)c2cc(C#N)ccc2OC1(C)C` (stereo not drawn) returned a melting point of 149 to 151 °C.
The same measure for `CCCCc1c2c(nn1CCCC)c(N)nc1ccccc12`: 143 to 145 °C.
With `COC(=O)c1c(Br)ccc2[nH]ncc12` the figure was 164 to 165 °C; with `COc1nc(C)c(C)cc1[N+](=O)[O-]`, 71 to 73 °C; with `O=c1ccc(Cl)cn1[C@@H]1c2cc([N+](=O)[O-])ccc2OCC[C@H]1O` (relative stereo), 219 to 222 °C.
The same measure for `COc1cc2c(cc1O)CCCN(Cc1ccccc1OC)C2`: 136 to 137 °C; for `OCCCc1ccccc1OCc1ccccc1`: 45 to 48 °C; for `COc1ccc2c(c1)c(-c1cc3nccnc3[nH]1)cn2C`: 270 to 272 °C.
`Cc1ccc(C(=O)NCCO)c(Nc2ccc3cn[nH]c3c2)n1` registered a melting point of 217 to 220 °C.
The same measure for `O=S(=O)(c1ccccc1)N1CCC(Nc2nc(OCC(F)(F)F)nc(N3CCCC3)n2)CC1`: 212 to 213 °C; for `COc1ccc(CCc2nnc(-c3ccc4[nH]nnc4c3)o2)cc1C(F)(F)F`: 154 to 155 °C.
As to `CCc1ccc(C2COc3c(C)c(C)c(N)c(C)c32)cc1` (stereo not drawn), the melting point was 88 to 89 °C.
With `Oc1ccc2oc(-c3ccc(O)c(F)c3)nc2c1` the figure was 262 to 268 °C; with `Cc1c(C)c(Cl)c2ccccc2c1Cl`, 142 °C; with `Cn1nc(C(F)(F)F)c(C(=O)CC#N)c1Cl`, 103 to 105 °C.
With `CCOC(=O)CNc1cc(Cl)nc(Cl)n1` the figure was 89 to 91 °C.
Compound `CCOC(=O)CC1NCCN(CCc2c[nH]c3ccccc23)C1=O` (stereo not drawn) registered a melting point of 80 °C.
With `O=C1Cc2ccccc2C(=O)N1Cc1ccccc1F` the figure was 140 to 144 °C.
With `O=C(Nc1ccccc1)Nc1cc(Cl)ccc1C(=O)O` the figure was 186 to 188 °C.
For the compound `COc1cccc2c(=O)c(O)coc12`, the melting point lay in the range of 180 to 183 °C.
On to `CCCCCC(CC(=O)Nc1cc(C(=O)NC(=O)C(C)(C)C)ccc1C(C)(C)C)c1ccc(OC)cc1OC` (stereo not drawn), for which the melting point is 170 to 172 °C.
As to `NS(=O)(=O)c1cc(CO)cc(NCc2ccccc2)c1S(=O)c1ccccc1` (stereo not drawn), the melting point fell in the range of 213 to 214 °C.
Compound `Cc1nc2c(s1)-c1nc(Nc3ccc(O)cc3)ncc1CC2` showed a melting point of 268 to 269 °C.
The compound `CCOC(=O)c1sc(N)nc1-c1ccc(Cl)cc1` returned a melting point of 198 to 200 °C.
The same measure for `CC(C)CN1CCC(CNC(=O)c2cc(Cl)c(N)[nH]c2=O)CC1`: 128 to 133 °C.
The same measure for `CCOC(=O)Cn1c(C(=O)OCC)c(O)c(O)c1C(=O)OCC`: 121 to 122 °C.
`CCC(=O)c1cc2c(s1)CCCN(CCCCCl)C2=O` showed a melting point of 91 to 92 °C.
With `Cc1noc(-c2ccc(CN3C(=O)C4(COc5cc6c(cc54)OCCO6)c4ccccc43)cc2)n1` (stereo not drawn) the figure was 177 to 178 °C; with `O=C(Nc1ccc(C(=O)N2CCC(O)c3ccccc32)cc1)c1cc(Cl)cc(Cl)c1` (stereo not drawn), 215 to 217 °C.
The same measure for `CC(C)S(=O)(=O)C(C#N)=C(Nc1cc(C(F)(F)F)cc(C(F)(F)F)c1)NC1CCC1`: 148 to 150 °C; for `CCCCCN1C(=O)C(CCC#N)(NC(=O)c2ccc(Cl)c(Cl)c2)c2ccccc21` (stereo not drawn): 79 to 84 °C.
`CCCC1=C(C(=O)OCC)C(c2cccnc2)c2c[nH]nc2N1` (stereo not drawn) registered a melting point of 251 °C.
The same measure for `CSC(=NC(=O)OC(C)(C)C)NNC(=O)NC(=O)OCc1ccccc1`: 120 to 123 °C; for `CC(C)Cn1c(=O)n(C)c(=O)c2c(SCCCO)n(Cc3ccccc3CS(=O)(=O)c3ccccc3)nc21`: 50 °C; for `CC(=C1C(=O)N(c2cccc(C)c2)c2ccccc21)N(C)C`: 96 to 99 °C.
With `COC(=O)CCC(=O)c1ccc(O)c(Cl)c1` the figure was 85 to 89 °C.
With `Nc1nc(N2CCC2)c2ncn(C3CC(O)C(CO)C3)c2n1` (single isomer, unassigned; (+)) the figure was 194 to 195 °C.
